Results: publication PMC9295122, “Sialic Acid Derivatives Inhibit SiaT Transporters and Delay Bacterial Growth” (ACS Chemical Biology, 2022)

Legend:
[1] = target: SaSiaT (Staphylococcus aureus, UniProt A0A0H2XJ46); experiment: [3H]Neu5Ac efflux in proteoliposomes, SaSiaT; format: biochemical; conditions: 0.1 mM external compound
Method: Figure 5 Kinetic analysis of the inhibition of recombinant SiaT from P. mirabilis (A,B) and S. aureus (C,D) reconstituted in proteoliposomes and [^3H]Neu5Ac efflux in proteoliposomes (E,F). (a–d) Data were plotted according to Lineweaver–Burk as a reciprocal transport rate vs reciprocal Neu5Ac concentration. The transport rate was measured, in 5 min, by adding [^3H] Neu5Ac at the indicated concentrations to proteoliposomes containing 20 mM K^+-gluconate in the presence of valinomycin as described in the Supporting Information. [(A,B) P. mirabilis SiaT]; (A) compound 3f 0.25 μM (●) or 0.75 μM (□) was added in comparison to samples without inhibitor (○). […] Data are calculated as the percent of residual activity with respect to the control sample (efflux time zero). […]
For uptake experiments, 600 μL of proteoliposomes were loaded onto a Sephadex G-75 column (0.7 cm diameter × 15 cm height), pre-equilibrated with 20 mM Hepes Tris pH 7.0 with 40 mM sucrose to balance the internal osmolarity. […] For kinetic measurement, the initial transport rate was measured by stopping the reaction after 5 min, that is, within the initial linear range of [^3H]-Neu5Ac uptake into the proteoliposomes previously described. […] Proteoliposomes were eluted with 1 mL of 50 mM NaCl and collected in a 4 mL of scintillation mixture, vortexed and counted.

[2] = tested on: P. mirabilis strain HI4320; experiment: Bacterial growth assay in MM with Neu5Ac, P. mirabilis; format: cell-based, Proteus mirabilis; conditions: P. mirabilis HI4320, MM + Neu5Ac 3.2 mM, compound 0.5 mM
Method: To investigate the efficacy of compounds 3e and 3f in inhibiting the uptake of Neu5Ac, bacterial growth assays were performed on a uropathogenic P. mirabilis strain HI4320 and a clinical HA-MRSA isolate S. aureus strain COL. The goal was to verify that compounds 3e and 3f alter bacterial growth when grown on Neu5Ac as an additional carbon source. Growth alteration would indicate Neu5Ac uptake impairment, thus validating our approach.
We first addressed whether these bacteria were able to catabolize the inhibitors and potentially use them as a carbon source for growth. Each strain was grown in carbon-limited defined minimal media (MM), without any carbon source other than sodium citrate for P. mirabilis and casamino acids for S. aureus, and supplemented with 3e and 3f. […] With these promising results, bacterial growth assays were performed in MM supplemented with Neu5Ac at a concentration of 3.2 mM and with 0.5 mM of compounds 3e and 3f (Figure 6a,b). The lag phase duration was determined as the time for the initial population density to increase twofold (see the horizontal dashed lines in Figure 6a,b). […] In the case of P. mirabilis, compound 3e indicated a delay in growth (3 h, P = 0.06), while no effect was recorded for compound 3f. […]

Chain of SaSiaT (A0A0H2XJ46 entry or part of it): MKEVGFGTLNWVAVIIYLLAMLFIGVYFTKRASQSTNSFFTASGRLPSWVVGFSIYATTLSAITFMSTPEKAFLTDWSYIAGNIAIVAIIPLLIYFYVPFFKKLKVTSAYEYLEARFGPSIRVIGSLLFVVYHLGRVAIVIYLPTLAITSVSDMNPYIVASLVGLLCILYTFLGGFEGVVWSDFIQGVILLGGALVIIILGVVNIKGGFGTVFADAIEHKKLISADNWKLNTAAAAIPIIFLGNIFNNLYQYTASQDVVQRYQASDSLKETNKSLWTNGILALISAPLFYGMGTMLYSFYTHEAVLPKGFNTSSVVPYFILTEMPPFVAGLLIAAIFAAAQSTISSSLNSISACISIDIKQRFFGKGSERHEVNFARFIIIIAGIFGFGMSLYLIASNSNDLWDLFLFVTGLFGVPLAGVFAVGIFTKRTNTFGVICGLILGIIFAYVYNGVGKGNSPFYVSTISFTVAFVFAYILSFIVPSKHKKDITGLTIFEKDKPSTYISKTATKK

Row | Structure (SMILES) | [3H]Neu5Ac efflux induced [1] | delay in growth (lag phase) [2]
1 | CC(=O)NC1C(OCc2cc(Br)cc(Br)c2)CC(O)(C(=O)O)OC1C(O)C(O)CO (stereo not shown) [Compound 3f] | negligible | no effect
2 | CC(=O)NC1C(OCc2cc(F)cc(F)c2)CC(O)(C(=O)O)OC1C(O)C(O)CO (stereo not shown) [Compound 3e] | to the same extent as Neu5Ac | 3 h
